Where “and” joins values, the source holds several entries; their conditions need not be identical. Equal values may be shown once. Entries after “also recorded” stand apart in the source; their conditions may differ.
Test system: female subjects with normal hepatic function, mild, moderate or severe hepatic impairment
Assay: Safety and tolerability (TEAEs, clinical laboratory, vital signs, physical examination) after a single oral dose of 20 mg E4 monohydrate in the hepatic impairment study
Format: in vivo, human
Description: This was a Phase 1, multi-centre, open-label, PK, and safety study of a single oral dose of 20 mg E4 monohydrate in female subjects with normal hepatic function (Group 1), mild hepatic impairment (Group 2), moderate hepatic impairment (Group 3), and severe hepatic impairment (Group 4), as defined using the Child-Pugh classification at Screening.
Safety and tolerability assessments consisted of treatment-emergent AEs (TEAEs), clinical laboratory, vital signs, physical examination, and gynecological examination. Assessments were performed in accordance with Table 2 and Table 3 in Section 2.5.1.
AEs/TEAEs were recorded after signing of the ICF until completion of the follow up visit. Any clinically significant observations in results of clinical laboratory, vital signs, or physical examinations were recorded as AEs.
A TEAE is defined as any event not present prior to administration of the study drug or any event already present that worsens in either severity or frequency following exposure to the study drug.
The below listed tests were to be performed by the local laboratories at time points indicated in the Schedule of Assessments (Table 2).
Systolic and diastolic blood pressure and pulse were recorded after the subject had been resting for at least 5 minutes in the supine position at time points indicated in the Schedule of Assessments (Table 2). These assessments were made using an automated device. Body temperature and respiratory rate were measured subsequently.
A complete physical examination consisting of a review of all body systems was performed at time points indicated in the Schedule of Assessments (Table 2). A symptom-directed physical examination could be conducted at any time per Investigator's discretion.
2.6.2.2 Evaluation of Safety and Tolerability Safety and tolerability were assessed through TEAEs, clinical laboratory, vital signs, and physical examination findings, and any other parameter that was relevant for safety assessment.
A listing of all individual AEs is provided. Summary tables of TEAEs are presented by system organ class (SOC) based on the MedDRA terminology list (preferred terms): a table containing the number of subjects experiencing AEs by hepatic function, a table containing the number of subjects experiencing SAEs by hepatic function (if applicable), a table by hepatic function and relationship, and a table by hepatic function and severity.

[1] = Mild (N = 8), single oral dose 20 mg E4
[2] = Moderate (N = 8), single oral dose 20 mg E4
[3] = Normal (N = 8), single oral dose 20 mg E4
[4] = Severe (N = 8), single oral dose 20 mg E4
[5] = Total (N = 32), single oral dose 20 mg E4
[6] = all 32 subjects, single oral dose 20 mg E4
[7] = moderate hepatic impairment group

C[C@]12CC[C@@H]3c4ccc(O)cc4CC[C@H]3[C@@H]1[C@@H](O)[C@@H](O)[C@@H]2O [E4, 1,3,5 (10)-estratrien-3,15alpha, 16alpha, 17beta-tetrol]
Subjects by maximum relationship to study drug: Not related [1]: 2 (25.0) n (%) | Subjects by maximum relationship to study drug: Related [1]: 0 n (%) | Subjects with TEAEs by maximum severity: Mild [1]: 2 (25.0) n (%) | Subjects with TEAEs by maximum severity: Moderate [1]: 0 n (%) | Subjects with at least one AE [1]: 2 (25.0) n (%) | Subjects with at least one SAE [1]: 0 n (%) | Subjects with at least one TEAE [1]: 2 n (%) and 2 (25.0) n (%) | Subjects with at least one TEAE leading to study drug discontinuation [1]: 0 n (%) | Subjects by maximum relationship to study drug: Not related [2]: 3 (37.5) n (%) | Subjects by maximum relationship to study drug: Related [2]: 1 (12.5) n (%) | Subjects with TEAEs by maximum severity: Mild [2]: 3 (37.5) n (%) | Subjects with TEAEs by maximum severity: Moderate [2]: 1 (12.5) n (%) | Subjects with at least one AE [2]: 4 (50.0) n (%) | Subjects with at least one SAE [2]: 0 n (%) | Subjects with at least one TEAE [2]: 4 n (%) and 4 (50.0) n (%) | Subjects with at least one TEAE leading to study drug discontinuation [2]: 0 n (%) | Subjects by maximum relationship to study drug: Not related [3]: 2 (25.0) n (%) | Subjects by maximum relationship to study drug: Related [3]: 0 n (%) | Subjects with TEAEs by maximum severity: Mild [3]: 0 n (%) | Subjects with TEAEs by maximum severity: Moderate [3]: 2 (25.0) n (%) | Subjects with at least one AE [3]: 2 (25.0) n (%) | Subjects with at least one SAE [3]: 0 n (%) | Subjects with at least one TEAE [3]: 2 n (%) and 2 (25.0) n (%) | Subjects with at least one TEAE leading to study drug discontinuation [3]: 0 n (%) | Subjects by maximum relationship to study drug: Not related [4]: 1 (12.5) n (%) | Subjects by maximum relationship to study drug: Related [4]: 0 n (%) | Subjects with TEAEs by maximum severity: Mild [4]: 1 (12.5) n (%) | Subjects with TEAEs by maximum severity: Moderate [4]: 0 n (%) | Subjects with at least one AE [4]: 1 (12.5) n (%) | Subjects with at least one SAE [4]: 0 n (%) | Subjects with at least one TEAE [4]: 1 n (%) and 1 (12.5) n (%) | Subjects with at least one TEAE leading to study drug discontinuation [4]: 0 n (%) | Subjects by maximum relationship to study drug: Related [5]: 1 n (%) and 1 (3.1) n (%) | Subjects with TEAEs by maximum severity: Moderate [5]: 3 n (%) and 3 (9.4) n (%) | Subjects with at least one AE [5]: 9 (28.1) n (%) | Subjects with at least one SAE [5]: 0 n (%) | Subjects with at least one TEAE [5]: 9 n (%) and 9 (28.1) n (%) | Subjects with at least one TEAE leading to study drug discontinuation [5]: 0 n (%) | subjects reporting TEAE back pain [6]: 2 subjects | subjects reporting TEAE diarrhea [6]: 3 subjects | subjects reporting TEAE headache [6]: 2 subjects | subjects reporting TEAE hypertension [6]: 2 subjects | laboratory values, changes and shifts from baseline (hematology, clinical chemistry) (all hepatic function groups): did not show deviations or trends which would raise safety concerns | number of TEAEs considered of mild intensity (all subjects): Eleven | number of TEAEs considered of moderate intensity (all subjects): 4 TEAEs | blood pressure, pulse rate, respiratory rate, body temperature (changes from baseline): showed no trends or clinically relevant changes | number of TEAEs considered related to the study drug (diarrhea, mild intensity, 1 subject in the moderate group): 1 TEAE | subjects with TEAE hypertension (mild hepatic impairment group): 2 subjects | subjects reporting TEAE diarrhea [7]: 2 subjects | subjects reporting TEAE headache [7]: 2 subjects | subjects reporting TEAE back pain (normal hepatic function group): 1 subjects | subjects reporting TEAE diarrhea (normal hepatic function group): 1 subjects | vital signs, laboratory values, physical examination (overall conclusion): unremarkable | subjects reporting TEAE back pain (severe hepatic impairment group): 1 subjects | deaths, SAEs, other significant AEs (whole study): no subjects with SAEs; also recorded: No deaths, SAEs, or other significant AEs occurred
